“Also recorded” adds a separate entry of the source. Like-named read-outs stand apart in the source and are kept apart here.
Tests used:
[1] = delivery depth by the d-SCC for various drugs with different molecular weights on pig skin; type: in vitro ADME; details: applied in combination with d-SCC
Text: FIG. 11 includes: (a) a graph showing the improvement in delivery depth by the d-SCC for various drugs with different molecular weights on pig skin; and (b) images showing the delivered states of the respective drugs under each condition.

[2] = tested on: atopic dermatitis-induced mice; test: transepidermal water loss in atopic dermatitis-induced mice, drugs combined with d-SCC; type: in vivo; details: applied in combination with the d-SCC patch
Text: FIG. 13 includes: (a) images showing the skin recovery progression in atopic dermatitis-induced mice following the combined application of various drugs and the d-SCC; and (b) a graph illustrating transepidermal water loss over time resulting from the combined application of the respective drugs and the d-SCC.

[3] = artificial skin, vs without a patch

Molecule	delivery depth of drug applied together with d-SCC [1]	other results
Ramoplanin	excellent delivery depth	
CC1=C(/C=C/C(C)=C/C=C/C(C)=C/CO)C(C)(C)CCC1 [Retinol]	excellent delivery depth	
Cc1occc(=O)c1O [Maltol]	greatest delivery depth among the tested conditions; also recorded: excellent delivery depth	transepidermal water loss (TEWL) of the skin [2]: recovered to a level closest to that of normal (control) skin
Hyaluronic acid	excellent delivery depth	
CCN(CC)c1ccc2c(-c3ccccc3C(=O)O)c3ccc(=[N+](CC)CC)cc-3oc2c1.[Cl-] [rhodamine B]		delivery depth improved compared to w/o patch ([3]; 30 minutes after removal of the patch): up to 95%; delivery depth improved compared to w/o patch ([3]; after 30 minutes of patch application): up to 138%
Ovalbumin (protein, UniProt P01012 2-386, looked up, hydrophilic compound) Ovalbumin: GSIGAASMEFCFDVFKELKVHHANENIFYCPIAIMSALAMVYLGAKDSTRTQINKVVRFDKLPGFGDSIEAQCGTSVNVHSSLRDILNQITKPNDVYSFSLASRLYAEERYPILPEYLQCVKELYRGGLEPINFQTAADQARELINSWVESQTNGIIRNVLQPSSVDSQTAMVLVNAIVFKGLWEKAFKDEDTQAMPFRVTEQESKPVQMMYQIGLFRVASMASEKMKILELPFASGTMSMLVLLPDEVSGLEQLESIINFEKLTEWTSSNVMEERKIKVYLPRMKMEEKYNLTSVLMAMGITDVFSSSANLSGISSAESLKISQAVHAAHAEINEAGREVVGSAEAGVDAASVSEEFRADHPFLFCIKHIATNAVLFFGRCVSP	excellent delivery depth	

Source: US20250255832A1, “SKIN ADHESIVE PATCH FOR NEGATIVE PRESSURE STIMULATION AND MANUFACTURING METHOD THEREFOR” (Research & Business Foundation Sungkyunkwan University, priority 2022, published 2025)
